Results on 20 compounds are retold here after patent US20060205740A1, “Chemical compounds” (priority 2003, published 2006).

For one assay, the target named is T1, ErbB2 (Homo sapiens, UniProt P04626).
T1 construct: made in house; host or cells: baculovirus expression system
Put plainly: ErbB2 substrate phosphorylation enzyme assay (HTRF). It counts as biochemical. Conditions: isolated enzyme, 20 μM ATP. On the procedure:
Compounds of the present invention were tested for EGFR, ErbB-2, and ErbB4 protein tyrosine kinase Inhibitory activity in substrate phosphorylation assays using enzymes purified from a baculovirus expression system. Reagent production was conducted essentially as described (Brignola, P. S., et al, (2002) J. Biol. Chem. v. 277 2, 1576-1585).
(§1) The method measures the ability of the isolated enzyme to catalyse the transfer of the γ-phosphate from ATP onto the tyrosine residue of a biotinylated synthetic peptide (biotin-Ahx-[…]-amide). The extent of tyrosine phosphorylation was measured using an anti-phosphotyrosine antibody, and quantified by homogenous time-resolved fluorescence (HTRF).
(§2) The enzymes were first diluted from their concentrated stock solutions into buffer containing 100 mM MOPS (pH7.5); 0.01% Tween-20; 0.1 mg/mL bovine serum albumin (BSA); and 80 nM EGFR, 100 nM ErbB2, or 100 nM ErbB4. The enzymes were incubated in this buffer for 30 minutes at room temperature before addition to the assay plates. Reactions were performed in black 384-well polystyrene flat-bottom plates in a final volume of 20 μL. Reaction mixtures contained 100 mM MOPS (pH 7.5), 2 mM MnCl2, 20 μM ATP, 0.01% Tween-20, 0.1 mg/mL (BSA), 0.8 μM peptide substrate, and 1 mM dithiothreitol. Reactions were initiated by adding enzyme. 0.4 nM EGRF, 5 nM ErbB2, and 0.5 nM ErbB4 were the final enzyme concentrations.
Reactions were allowed to proceed for 90 minutes and were then terminated by the addition of 20 μL 100 mM EDTA to each well. 40 μL/well of HTRF mix were then added to the assay plates for the detection of phosphorylated substrate. Final assay concentrations were: 100 mM HEPES (pH7.5), 0.1 mg/mL BSA, 15 nM streptavidin-labeled allophycocyanin (PerkinElmer), and 1 nM europium-labeled anti-phosphotyrosine antibody (PerkinElmer). Assay plates were left unsealed and were counted in a Wallac Multilabel Counter 1420 (PerkinElmer).
Compounds under analysis were dissolved in Me2SO to 1.0 mM and serially diluted 1 to 3 with Me2SO through twelve dilutions. 1 μL of each concentration was transferred to the corresponding well of an assay plate. This creates a final compound concentration range from 0.00027 to 47.6 μM.
The data for dose responses were plotted as % Inhibition calculated with the data reduction formula 100*(1−(U1−C2)/(C1−C2)) versus concentration of compound where U is the unknown value, C1 is the average control value obtained for 4.76% DMSO, and C2 is the average control value obtained for 0.035 M EDTA. Data were fitted with a curve described by: y=((Vmax*x)/(K+x))+Y2 where Vmax is the upper asymptote, Y2 is the Y intercept, and K is the IC50. The results for reach compound were recorded as pIC50s, calculated as follows: pIC50=−Log10(K)

The target in a further assay is T2, EGFR (Homo sapiens, UniProt P00533).
T2 construct: made in house; host or cells: baculovirus expression system
T2 sequence (P00533 669-1210 limits assumed): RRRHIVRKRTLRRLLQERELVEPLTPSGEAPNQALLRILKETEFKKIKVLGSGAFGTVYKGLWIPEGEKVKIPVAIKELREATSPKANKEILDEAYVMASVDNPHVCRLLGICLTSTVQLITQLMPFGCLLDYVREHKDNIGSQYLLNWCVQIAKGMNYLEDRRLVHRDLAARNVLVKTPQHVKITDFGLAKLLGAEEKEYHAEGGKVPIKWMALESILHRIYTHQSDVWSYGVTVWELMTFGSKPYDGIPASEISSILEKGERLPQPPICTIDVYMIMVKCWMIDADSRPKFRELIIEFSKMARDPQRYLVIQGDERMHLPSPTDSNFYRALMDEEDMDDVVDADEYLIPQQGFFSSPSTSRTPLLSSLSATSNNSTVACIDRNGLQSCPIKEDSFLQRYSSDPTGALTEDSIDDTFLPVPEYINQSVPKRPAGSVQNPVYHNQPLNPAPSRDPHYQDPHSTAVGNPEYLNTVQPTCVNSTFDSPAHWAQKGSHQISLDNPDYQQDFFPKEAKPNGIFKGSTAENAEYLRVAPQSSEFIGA
In words: EGFR substrate phosphorylation enzyme assay (HTRF). It counts as biochemical. The following applies: isolated enzyme, 20 μM ATP. As for the experimental part:
Compounds of the present invention were tested for EGFR, ErbB-2, and ErbB4 protein tyrosine kinase Inhibitory activity in substrate phosphorylation assays using enzymes purified from a baculovirus expression system.
as §1, §2
Reactions were allowed to proceed for 90 minutes and were then terminated by the addition of 20 μL 100 mM EDTA to each well. 40 μL/well of HTRF mix were then added to the assay plates for the detection of phosphorylated substrate.
Compounds under analysis were dissolved in Me2SO to 1.0 mM and serially diluted 1 to 3 with Me2SO through twelve dilutions. 1 μL of each concentration was transferred to the corresponding well of an assay plate.
Data were fitted with a curve described by: y=((Vmax*x)/(K+x))+Y2 where Vmax is the upper asymptote, Y2 is the Y intercept, and K is the IC50.
In general terms: In TR-FRET formats the signal depends on donor and acceptor labels being close together.

T1 sequence (P04626 676-1255 limits assumed): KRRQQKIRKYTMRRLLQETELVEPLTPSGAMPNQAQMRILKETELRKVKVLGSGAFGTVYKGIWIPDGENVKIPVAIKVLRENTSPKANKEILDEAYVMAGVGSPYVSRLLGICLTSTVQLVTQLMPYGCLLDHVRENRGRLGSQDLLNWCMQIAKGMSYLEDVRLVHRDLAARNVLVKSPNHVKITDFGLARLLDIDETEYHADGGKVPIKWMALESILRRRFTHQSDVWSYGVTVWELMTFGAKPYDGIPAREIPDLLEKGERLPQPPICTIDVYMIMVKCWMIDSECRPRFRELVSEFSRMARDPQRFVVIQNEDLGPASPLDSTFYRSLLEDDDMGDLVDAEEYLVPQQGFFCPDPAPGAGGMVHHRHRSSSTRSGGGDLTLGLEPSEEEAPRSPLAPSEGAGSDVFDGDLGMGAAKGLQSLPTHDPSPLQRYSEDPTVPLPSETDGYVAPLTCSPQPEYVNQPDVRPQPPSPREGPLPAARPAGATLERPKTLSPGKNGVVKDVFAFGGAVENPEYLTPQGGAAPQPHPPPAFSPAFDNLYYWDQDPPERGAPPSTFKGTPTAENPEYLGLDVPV

As a reminder, the IC50 is the concentration needed to halve the response being measured. Low values mean greater potency, high ones weaker potency. Take `C(=C\c1cncnc1Nc1ccc2sc(Cc3ccccc3)nc2c1)/c1ccsc1` [Example 5, 2-Benzyl-N-{5-[(E)-2-thien-3-ylethenyl]pyrimidin-4-yl}-1,3-benzothiazol-5-amine]: the IC50 on ErbB2 and at EGFR was > 1000 nM throughout. Regarding `C(=C\c1cncnc1Nc1ccc2c(cnn2Cc2ccccc2)c1)/c1cn[nH]c1` [Example 9, 1-Benzyl-N-{5-[(E)-2-(1H-pyrazol-4-yl)ethenyl]pyrimidin-4-yl}-1H-indazol-5-amine], the IC50 at ErbB2 and on EGFR was 100 to 1000 nM each time.

In the case of `Fc1cccc(COc2ccc(Nc3ncncc3/C=C/c3ccncc3)cc2Cl)c1` [Example 14, N-{3-Chloro-4-[(3-fluorobenzyl)oxy]phenyl}-5-[(E)-2-pyridin-4-ylethenyl]pyrimidin-4-amine], the IC50 against ErbB2 and on EGFR was < 100 nM each time. As for `Fc1cccc(COc2ccc(Nc3ncncc3/C=C/c3ccsc3)cc2Cl)c1` [Example 17, N-{3-Chloro-4-[(3-fluorobenzyl)oxy]phenyl}-5-[(E)-2-thien-3-yletheny]pyrimidin-4-amine], the IC50 against ErbB2 and at EGFR was < 100 nM throughout.

With `CC(=O)Nc1cccc(/C=C/c2cncnc2Nc2ccc(OCc3cccc(F)c3)c(Cl)c2)c1` [Example 20, N-(3-{(E)-2-[4-({3-Chloro-4-[(3-fluorobenzyl)oxy]phenyl}amino)pyrimidin-5-yl]ethenyl}phenyl)acetamide], the IC50 at ErbB2 and on EGFR was < 100 nM in each case.

`COc1ccc(/C=C/c2cncnc2Nc2ccc(OCc3cccc(F)c3)c(Cl)c2)cc1OC` [Example 21, N-{3-Chloro-4-[(3-fluorobenzyl)oxy]phenyl}-5-[(E)-2-(3,4-dimethoxyphenyl)ethenyl]pyrimidin-4-amine]: the IC50 against ErbB2 and against EGFR was < 100 nM each time. As to `Fc1cccc(COc2ccc(Nc3ncncc3/C=C/c3ccccc3)cc2Cl)c1` [Example 22, N-{3-Chloro-4-[(3-fluorobenzyl)oxy]phenyl}-5-[(E)-2-phenylethenyl]pyrimidin-4-amine], the half-maximal inhibitory concentration (IC50) against ErbB2 and at EGFR was < 100 nM each time. Regarding `N=C(N)Nc1cccc(C#Cc2cncnc2Nc2ccc(OCc3cccc(F)c3)c(Cl)c2)c1` [Example 49, N-(3-{[4-({3-Chloro-4-[(3-fluorobenzyl)oxy]phenyl}amino)pyrimidin-5-yl]ethynyl}phenyl)guanidine], the IC50 against ErbB2 is < 100 nM; against EGFR it was 100 to 1000 nM. The corresponding values for `Nc1cccc(C#Cc2cncnc2Nc2ccc(OCc3cccc(F)c3)c(Cl)c2)n1` [Example 67, 5-[(6-Amino-2-pyridinyl)ethynyl]-N-(3-chloro-4-{[(3-fluorophenyl)methyl]oxy}phenyl)4-pyrimidinamine] are < 100 nM and < 100 nM. On the same counts, the results for `CN(C)CCCC(=O)Nc1cccc(C#Cc2cncnc2Nc2ccc(OCc3cccc(F)c3)c(Cl)c2)n1` [Example 70, N-{6-[(4-{3-Chloro-4-[(3-fluorobenzyl)oxy]anilino}-5-pyrimidinyl)ethynyl]-2-pyridinyl}-4-(dimethylamino)butanamide] are < 100 nM and < 100 nM. The corresponding values for `COC(=O)CCC(=O)Nc1cccc(C#Cc2cncnc2Nc2ccc(OCc3cccc(F)c3)c(Cl)c2)n1` [Example 71, Methyl 4-({6-[(4-{3-chloro-4-[(3-fluorobenzyl)oxy]anilino}-5-pyrimidinyl)ethynyl]-2-pyridinyl}amino)-4-oxobutanoate] are 100 to 1000 nM and 100 to 1000 nM.

For `CS(=O)(=O)CCNc1cccc(C#Cc2cncnc2Nc2ccc(OCc3cccc(F)c3)c(Cl)c2)n1` [Example 72, N-{3-Chloro-4-[(3-fluorobenzyl)oxy]phenyl}-5-[(6-{[2-(methylsulfonyl)ethyl]amino}-2-pyridinyl)ethynyl]-4-pyrimidinamine], the IC50 on ErbB2 and against EGFR was > 1000 nM throughout. With `Fc1cccc(COc2ccc(Nc3ncncc3C#Cc3cccc(CNCCN4CCOCC4)n3)cc2Cl)c1` [Example 76, N-{3-Chloro-4-[(3-fluorobenzyl)oxy]phenyl}-5-{[6-({[2-(4-morpholinyl)ethyl]amino}methyl)-2-pyridinyl]ethynyl}-4-pyrimidinamine], the IC50 at ErbB2 and against EGFR was 100 to 1000 nM throughout. `Fc1cccc(COc2ccc(Nc3ncncc3C#Cc3cccc(CNCCCn4ccnc4)n3)cc2Cl)c1` [Example 78, N-{3-Chloro-4-[(3-fluorobenzyl)oxy]phenyl}-5-{[6-({[3-(1H-imidazol-1-yl)propyl]amino}methyl)-2-pyridinyl]ethynyl}-4-pyrimidinamine]: the concentration for half-maximal inhibition (IC50) against ErbB2 and on EGFR was < 100 nM each time.

With `COCc1cccc(C#Cc2cncnc2Nc2ccc(OCc3cccc(F)c3)c(Cl)c2)n1` [Example 80, N-{3-Chloro-4-[(3-fluorobenzyl)oxy]phenyl}-5-{[6-(methoxymethyl)-2-pyridinyl]ethynyl}-4-pyrimidinamine], the half-inhibitory concentration (IC50) at ErbB2 and at EGFR was > 1000 nM throughout. As for `CS(=O)(=O)CCNC(=O)NCc1cccc(C#Cc2cncnc2Nc2ccc(OCc3cccc(F)c3)c(Cl)c2)n1` [Example 88, N-({6-[(4-{3-Chloro-4-[(3-fluorobenzyl)oxy]anilino}-5-pyrimidinyl)ethynyl]-2-pyridinyl}methyl)-N′-[2-(methylsulfonyl)ethyl]urea], the IC50 on ErbB2 and at EGFR was < 100 nM throughout. For `O=C(NCCN1CCOCC1)NCc1cccc(C#Cc2cncnc2Nc2ccc(OCc3cccc(F)c3)c(Cl)c2)n1` [Example 89, N-({6-[(4-{3-Chloro-4-[(3-fluorobenzyl)oxy]anilino}-5-pyrimidinyl)ethynyl]-2-pyridinyl}methyl)-N′-[2-(4-morpholinyl)ethyl]urea], the IC50 at ErbB2 and against EGFR was < 100 nM throughout. As for `Fc1cccc(COc2ccc(Nc3ncncc3C#Cc3cccc(CN4CCCCC4)n3)cc2Cl)c1` [Example 92, N-{3-Chloro-4-[(3-fluorobenzyl)oxy]phenyl}-5-([6-(1-piperidinylmethyl)-2-pyridinyl]ethynyl}-4-pyrimidinamine], the IC50 on ErbB2 and on EGFR was < 100 nM throughout.

For the compound `Nc1nccc(C#Cc2cncnc2Nc2ccc(OCc3cccc(F)c3)c(Cl)c2)n1` [Example 99, 4-{[4-({3-Chloro-4-[(3-fluorobenzyl)oxy]phenyl}amino)pyrimidin-5-yl]ethynyl}pyrimidin-2-amine], the IC50 against ErbB2 is < 100 nM. `O=C(Nc1cccc(C#Cc2cncnc2Nc2ccc(OCc3cccc(F)c3)c(Cl)c2)n1)C(F)(F)F` [Example 100, N-(6-{[4-({3-Chloro-4-[(3-fluorobenzyl)oxy]phenyl}amino)pyrimidin-5-yl]ethynyl}pyridin-2-yl)-2,2,2-trifluoroacetamide]: the IC50 against ErbB2 and at EGFR was < 100 nM each time.
